Experimental data as given in paper PMC7122821, “Molecular basis of P[II] major human rotavirus VP8* domain recognition of histo-blood group antigens” (PLoS Pathogens, 2020).
Where “and” joins values, the source holds several entries; their conditions need not be identical. Equal values may be shown once. Entries after “also recorded” stand apart in the source; their conditions may differ.

What was measured:
[1] = test system: H177A-P[8] VP8* mutant; test: HSQC NMR titration of H177A-P[8] mutant with LNDFH I; format: binding, human RV; conditions: same ligand ratio as wild type P[8]
Experimental: (§1) The VP8* core fragments (amino acids 64 to 223) of the human RV P[8] (BM13851) and P[6] (BM11596) with an N-terminal glutathione S-transferase (GST) tag was overexpressed in Escherichia coli BL21 (DE3) cells as previously described. The P[8] T78A, D79A, K168A, R154A, H177A, and D186A mutations were generated through overlap-extension site mutagenesis, and the sequences were confirmed at the Center for Bioinformatics and Functional Genomics (CBFG) at Miami University. Cells were grown in 1L Luria broth (LB) medium supplemented with 100 μg mL^-1 ampicillin at 310 K. When the OD600 reached 0.8, 0.5 mM isopropyl-β-D-thiogalactopyranoside was added to the medium to induce protein expression. The cell pellet was harvested within 12 h after induction and re-suspended in the phosphate-buffered saline (PBS) buffer (140 mM NaCl, 2.7 mM KCl, 10 mM Na2HPO4, 1.8 mM KH2PO4, pH 7.3). […]
(§2) Chemical shift perturbations were followed by 2D ^1H-^15N HSQC for P[8] […] Spectra were process with NMRPipe software and analyzed with SPARKY [69]. The chemical shift changes upon titration was determined by the following formula [71]: Δδobs=1/2[δH2+(α·δN2)],δH=δHfree−δHbound,δN=δNfree−δNbound . […] Standard deviation σ of the Euclidean chemical shift change was calculated and threshold value was chosen from 1.5σ to 2.5σ for the VP8*-HBGA by balancing the specificity and sensitivity. […]

[2] = test system: D79A-P[8] VP8* mutant; test: HSQC NMR titration of D79A-P[8] mutant with LNDFH I; format: binding, human RV; conditions: same ligand ratio as wild type P[8]
Experimental: as §1, §2

[3] = test system: R154A-P[8] VP8* mutant; test: HSQC NMR titration of R154A-P[8] mutant with LNDFH I; format: binding, human RV; conditions: same ligand ratio as wild type P[8]
Experimental: as §1, §2

[4] = test system: D186A-P[8] VP8* mutant; test: HSQC NMR titration of D186A-P[8] mutant with LNDFH I; format: binding, human RV; conditions: same ligand ratio as wild type P[8]
Experimental: as §1, §2

[5] = test system: glutathione S-transferase (GST); test: STD NMR negative control with GST; format: binding; conditions: 40 μM GST with 2.0 mM ligand
Experimental: (§3) All STD NMR spectra were acquired in Shigemi Tubes (Shigemi, USA) on 600-MHz Bruker Avance III and 850-MHz Bruker Avance II NMR spectrometers equipped with conventional 5-mm HCN probes at 283 K with pulse sequence STDDIFFESGP.3. The NMR samples for P[8] VP8* were prepared as 46 μM P[8] VP8* with 2.3 mM LNDFHI (1:50 protein: ligand ratio), and 33 μM P[8] VP8* with 1.86 mM Le^b tetra-saccharide (1:56 protein: ligand ratio). The NMR samples for P[6] VP* were prepared as 46 μM P[6] with 4.6 mM LNT (1:100 protein: ligand ratio), and 46 μM P[6] with 2.3 mM LNT (1:50 protein: ligand ratio). A control sample was prepared as 40 μM GST with 2.0 mM LNDFHI (1:50 protein: ligand ratio). […] The protein resonances were saturated with a cascade of Gaussian-shaped pulses with a duration of 50 ms, with a total saturation time of 2 s and 4 s. The on resonance was chosen to selectively saturate only the proteins for each sample. […] The STD amplification factors were determined by the equation (ISTD/IO) × molar ratio, where I0 are the intensities of the signals in the reference spectrum, and ISTD are intensities that obtained by subtracting the on-resonance spectrum from the off-resonance spectrum. The normalized STD amplification percentage for epitope mapping was determined by dividing by the largest STD amplification factor for each ligand.

[6] = test system: P[8] VP8*; test: STD NMR of glycans with P[8] VP8*; format: binding, human RV; conditions: 283 K; 1:50 or 1:56 protein:ligand
Experimental: as §3

[7] = test system: K168A-P[8] VP8* mutant; test: HSQC NMR titration of K168A-P[8] mutant with LNDFH I; format: binding, human RV; conditions: same ligand ratio as wild type P[8]
Experimental: as §1, §2

[8] = test system: T78A-P[8] VP8* mutant; test: HSQC NMR titration of T78A-P[8] mutant with LNDFH I; format: binding, human RV; conditions: same ligand ratio as wild type P[8]
Experimental: as §1, §2

[9] = target: P[8] VP8* (BM13851) (Rotavirus A, UniProt P11193); test: 2D 1H-15N HSQC NMR titration of P[8] VP8* with glycans; format: binding, human RV; conditions: for Kd: read-out: dissociation constant (Kd), PBS buffer, global fitting
Experimental: Chemical shift perturbations were followed by 2D ^1H-^15N HSQC for P[8] VP8*, P[8] mutants, and P[6] VP8* upon titration of each glycan ligand. NMR data were collected with samples in PBS buffer in 5-mm Shigemi NMR tubes on 600-MHz Bruker Avance III or 850-MHz Bruker Avance II NMR spectrometers equipped with conventional 5-mm HCN probes. Samples of 0.20 mM ^15N-labeled P[8] VP8* was titrated with LNDFH I at 0, 0.020, 0.040, 0.80, 1.00, 1.20, 1.40, 1.60, 2.00, 2.80, 3.60, 4.40, 5.00 mM. The same ratio of LNDFH I was titrated to each P[8] mutant as the titration of LNDFH I to wild type P[8]. Samples of 0.31 mM ^15N-labeled P[8] VP8* was titrated with Le^b tetra-saccharide at 0, 0.031, 0.15, 0.31, 0.62, 1.24, 2.49, 4.35, 5.60, 6.84, 7.78, 8.71, 9.33 mM. Samples of 0.24 mM ^15N-labeled P[6] VP8* was titrated with LNFP I at 0, 0.024, 0.12, 0.24, 0.48, 0.96, 1.93, 3.37, 4.34, 5.30, 6.03, 6.75, 7.23, 8.44 mM. Samples of 0.33 mM ^15N-labeled P[6] VP8* was titrated with LNT at 0, 0.033, 0.17, 0.33, 0.69, 1.34, 2.67, 4.68, 6.01, 7.35, 8.35 mM. Spectra were process with NMRPipe software and analyzed with SPARKY [69]. The chemical shift changes upon titration was determined by the following formula [71]: Δδobs=1/2[δH2+(α·δN2)],δH=δHfree−δHbound,δN=δNfree−δNbound . Where δH free and δH bound are the backbone amide hydrogen chemical shifts in the absence and presence of ligand, δN free and δN bound are the amide nitrogen chemical shifts in the free and bound state. The value of Euclidean weighting correction factor α was set to 0.14 [72]. Standard deviation σ of the Euclidean chemical shift change was calculated and threshold value was chosen from 1.5σ to 2.5σ for the VP8*-HBGA by balancing the specificity and sensitivity. Amino acids with chemical shifts greater than the threshold value were used to calculate the dissociation constants. Dissociation constants were obtained by fitting the following equation: Δδobs=Δδmax{([P]t+[L]t+Kd)−[([P]t+[L]t+Kd)^2−4[P]t[L]t]^1/2}/2Pt . Where [P]t and [L]t represent the total concentrations of protein and ligand, Δδobs is the change in the observed chemical shift from the free state, Δδmax is the maximum chemical shift change on saturation, Kd represents the dissociation constant.

[10] = target: P[6] VP8* (BM11596) (Rotavirus A, UniProt D2DXN5); test: 2D 1H-15N HSQC NMR titration of P[6] VP8* with glycans; format: binding, human RV
Experimental: Chemical shift perturbations were followed by 2D ^1H-^15N HSQC for P[8] VP8*, P[8] mutants, and P[6] VP8* upon titration of each glycan ligand. NMR data were collected with samples in PBS buffer in 5-mm Shigemi NMR tubes on 600-MHz Bruker Avance III or 850-MHz Bruker Avance II NMR spectrometers equipped with conventional 5-mm HCN probes. Samples of 0.20 mM ^15N-labeled P[8] VP8* was titrated with LNDFH I at 0, 0.020, 0.040, 0.80, 1.00, 1.20, 1.40, 1.60, 2.00, 2.80, 3.60, 4.40, 5.00 mM. The same ratio of LNDFH I was titrated to each P[8] mutant as the titration of LNDFH I to wild type P[8]. Samples of 0.31 mM ^15N-labeled P[8] VP8* was titrated with Le^b tetra-saccharide at 0, 0.031, 0.15, 0.31, 0.62, 1.24, 2.49, 4.35, 5.60, 6.84, 7.78, 8.71, 9.33 mM. Samples of 0.24 mM ^15N-labeled P[6] VP8* was titrated with LNFP I at 0, 0.024, 0.12, 0.24, 0.48, 0.96, 1.93, 3.37, 4.34, 5.30, 6.03, 6.75, 7.23, 8.44 mM. Samples of 0.33 mM ^15N-labeled P[6] […] Spectra were process with NMRPipe software and analyzed with SPARKY [69]. The chemical shift changes upon titration was determined by the following formula [71]: Δδobs=1/2[δH2+(α·δN2)],δH=δHfree−δHbound,δN=δNfree−δNbound . […] Standard deviation σ of the Euclidean chemical shift change was calculated and threshold value was chosen from 1.5σ to 2.5σ for the VP8*-HBGA by balancing the specificity and sensitivity. […]

[11] = test system: P[6] VP8*; test: STD NMR of glycans with P[6] VP8*; format: binding, human RV; conditions: 283 K
Experimental: as §3

[12] = test system: P[8] VP8*; set-up: method as in PMID 31226167; conditions: cited from earlier work

Question: With CC(=O)NC1C(OC2C(O)C(CO)OC(OC3C(CO)OC(O)C(O)C3O)C2O)OC(CO)C(OC2OC(C)C(O)C(O)C2O)C1OC1OC(CO)C(O)C(O)C1OC1OC(C)C(O)C(O)C1O (stereo not drawn) [LNDFH I, lacto-N-difucohexaose I] as the compound, how does the “binding to H177A-P[8] mutant” value [1] read?
Answer: significant loss of binding to the glycan

Question: What about the “binding to D79A-P[8] mutant” value [2] of the same compound?
Answer: retained binding to the glycan

Question: What about the “binding to R154A-P[8] mutant” value [3] of the same compound?
Answer: significant loss of binding to the glycan

Question: And the “binding to D186A-P[8] mutant” value [4]?
Answer: significant loss of binding to the glycan

Question: What about the “STD NMR signal with GST (negative control)” value [5] of the same compound?
Answer: did not show significant signal intensities

Question: And the “binding to P[8] VP8* by STD NMR” value [6]?
Answer: found to bind

Question: And the “binding to K168A-P[8] mutant” value [7]?
Answer: retained binding to the glycan

Question: What about the “binding to T78A-P[8] mutant” value [8] of the same compound?
Answer: retained binding to the glycan

Question: And the Kd [9]?
Answer: 6.3 mM and 6.29 mM

Question: What does the source list for CC(=O)NC1C(OC2C(O)C(CO)OC(OC3C(CO)OC(O)C(O)C3O)C2O)OC(CO)C(O)C1OC1OC(CO)C(O)C(O)C1OC1OC(C)C(O)C(O)C1O (stereo not drawn) [LNFP I, lacto-N-fucopentaose I]?
Answer: Kd [10]: 13.6 ± 1.7 mM; binding to P[6] VP8* by STD NMR [11]: bound; Kd [9]: 23.5 mM

Question: Which results are given for CC(=O)NC1C(OC2C(O)C(CO)OC(OC3C(CO)OC(O)C(O)C3O)C2O)OC(CO)C(O)C1OC1OC(CO)C(O)C(O)C1O (stereo not drawn) [LNT, lacto-N-tetraose]?
Answer: Kd [10]: 2.5 ± 0.2 mM; binding to P[6] VP8* by STD NMR [11]: bound; binding to P[8] VP8* in HSQC titration [9]: little binding signal; also recorded: did not recognize

Question: What does the source list for CC(=O)NC1C(O)OC(CO)C(OC2OC(C)C(O)C(O)C2O)C1OC1OC(CO)C(O)C(O)C1OC1OC(C)C(O)C(O)C1O (stereo not drawn) [Le^b tetra-saccharide, Fucα1-2Galβ1–3[Fucα1–4]GlcNAc]?
Answer: binding to P[8] VP8* by STD NMR [6]: found to bind; Kd [9]: 20.3 ± 4.8 mM

Question: For CC(=O)N[C@H]1C(O)O[C@H](CO)[C@@H](O)[C@@H]1O[C@@H]1O[C@H](CO)[C@H](O)[C@H](O)[C@H]1O (stereo partly drawn) [lacto-N-biose], which “affinity relative to H1 trisaccharide” value [12] is on record?
Answer: two-fold weaker affinity
